Drawing on patent US8431593B2, “Heteroaryl amide derivatives” (H. Lundbeck A/S, priority 2006, dated 2013), this text covers IC50 for 24 molecules.

The target of one experiment is T1, P2X7 receptor (Homo sapiens, UniProt Q99572).
T1 construct: host or cells: SH-SY5Y
T1 sequence (Q99572 1-595): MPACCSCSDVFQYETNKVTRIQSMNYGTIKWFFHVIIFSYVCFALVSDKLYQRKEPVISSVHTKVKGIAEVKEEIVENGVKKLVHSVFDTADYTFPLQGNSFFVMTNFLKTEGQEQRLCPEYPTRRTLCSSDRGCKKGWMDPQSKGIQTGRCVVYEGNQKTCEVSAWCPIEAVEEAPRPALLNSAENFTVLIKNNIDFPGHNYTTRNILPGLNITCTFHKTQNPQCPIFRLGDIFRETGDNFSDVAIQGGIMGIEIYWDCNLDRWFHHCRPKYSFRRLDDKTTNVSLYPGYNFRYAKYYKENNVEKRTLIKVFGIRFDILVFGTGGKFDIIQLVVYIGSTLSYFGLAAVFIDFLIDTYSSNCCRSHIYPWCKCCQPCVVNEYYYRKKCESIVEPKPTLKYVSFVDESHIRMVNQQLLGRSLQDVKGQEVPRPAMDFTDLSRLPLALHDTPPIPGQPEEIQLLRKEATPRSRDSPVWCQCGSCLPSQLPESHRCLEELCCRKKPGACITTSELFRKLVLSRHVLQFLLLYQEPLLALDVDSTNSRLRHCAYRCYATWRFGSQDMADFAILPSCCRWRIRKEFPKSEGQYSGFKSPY
In words: P2X7 calcium mobilization assay, high throughput, antagonist activity (Example 4A). Format: cell-based.
Conditions: not given
The essentials:
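Cells plated at 100,000/well the day before were dye-loaded for 1 h, then incubated 1 h at room temperature with test compound before agonist-triggered calcium mobilization was read on FLIPR Tetra. Maximum RFU was corrected by subtracting the no-agonist control and related to the agonist-control response.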
`O=C(NCC12CC3CC(CC(C3)C1)C2)c1cccc2nc(CNCCN3CCOCC3)cn12` [Compound 125, N-(adamantan-1-ylmethyl)-2-{[(2-morpholin-4-ylethyl)amino]methyl}imi-dazo[1,2-a]pyridine-5-carboxamide]: the 50% inhibitory concentration (IC50) is below 2000 nM.

The experiment is the same for the next values; noted with them: 50% decrease in the fluorescence response of cells exposed to 80 μM 2′(3′)-O-(4-benzoyl-benzoyl)adenosine 5′-triphosphate; Example 4A; read-out: IC50.
`CCCN(CC1CC1)C(=O)c1cn2c(C(=O)NC[C@@H]3CC[C@H]4C[C@@H]3C4(C)C)cccc2n1` [Compound 474, 2-N-(cyclopropylmethyl)-5-N-{[(1S,2R,5S)-6,6-dimethylbicyclo[3.1.1]hept-2-yl]methyl}-2-N-propylimidazo[1,2-a]pyridine-2,5-dicarboxamide]: the half-maximal inhibitory concentration (IC50) was below 2000 nM.

For the molecule `CC(C)[C@H]1CN(C(=O)c2cn3c(C(=O)NCC45CC6CC(CC(C6)C4)C5)cccc3n2)CCN1` [Compound 615, N-(adamantan-1-ylmethyl)-2-{[(3S)-3-isopropylpiperazin-1-yl]carbonyl}imidazo[1,2-a]pyridine-5-carboxamide], the IC50 is below 2000 nM.

Staying with this experiment, now noted: 50% decrease in the fluorescence response of cells exposed to 80 μM of 2′(3′)-O-(4-benzoyl-benzoyl)adenosine 5′-triphosphate; Example 4A; read-out: IC50.
Take `CNC(=O)CC1(c2cn3c(C(=O)NCC45CC6CC(CC(C6)C4)C5)cccc3n2)CC(=O)N(C)C1=O` (stereo not drawn) [Compound 807, N-(adamantan-1-ylmethyl)-2-{1-methyl-3-[2-(methylamino)-2-oxoethyl]-2,5-dioxopyrrolidin-3-yl}imidazo[1,2-a] pyridine-5-carboxamide]: the half-inhibitory concentration (IC50) was below 2000 nM.

With `CC(C)CC(CNC(=O)c1cccc2nc(CN3CC[C@@H](N)C3)cn12)c1ccc(C(F)(F)F)cc1` (stereo in doubt) [Compound 763, 2-[(3-aminopyrrolidin-1-yl)methyl]-N-{4-methyl-2-[4-(trifluoromethyl)phenyl]pentyl}imidazo [1,2-a] pyridine-5-carboxamide], the half-inhibitory concentration (IC50) is below 2000 nM.

The experiment is the same for the next values; noted with them: 50% decrease in the fluorescence response of cells exposed to 80 μM of 2′(3′)-O-(4-benzoyl-benzoyl)adenosine 5′-triphosphate; determined as in Example 4A; read-out: IC50.
With `O=C(NCC1(c2ccc(Cl)cc2)CCCCC1)c1cccc2nc(C(CC3CC3)C(=O)O)cn12` (stereo not drawn) [Compound 1010, 2-[5-({[1-(4-chlorophenyl)cyclohexyl]methyl}carbamoyl)imidazo[1,2-a]pyridin-2-yl]-3-cyclopropylpropanoic acid], the IC50 was below 2000 nM.

Regarding `CCCCC(C(=O)OCC)c1cn2c(C(=O)NCC34CC5CC(CC(C5)C3)C4)cccc2n1` (stereo not drawn) [Compound 906, ethyl 2-{5-[(adamantan-1-ylmethyl)carbamoyl]imidazo[1,2-a]pyridin-2-yl} hexanoate], the 50% inhibitory concentration (IC50) is below 2000 nM.

As for `CC(C)CC(CNC(=O)c1cccc2nc(CCC(=O)O)cn12)c1ccc(C(F)(F)F)cc1` (stereo not drawn) [Compound 986, 3-[5-({4-methyl-2-[4-(trifluoromethyl)phenyl]pentyl}carbamoyl)imidazo[1,2-a]pyridin-2-yl] propanoic acid], the IC50 was below 2000 nM.

For `O=C(NCC12CC3CC(CC(C3)C1)C2)c1cccc2nc(C(Cc3ccccc3Cl)C(=O)O)cn12` (stereo not drawn) [Compound 844, 2-{5-[(adamantan-1-ylmethyl)carbamoyl]imidazo[1,2-a]pyridin-2-yl}-3-(2-chlorophenyl) propanoic acid], the half-inhibitory concentration (IC50) is below 2000 nM.

Turning to `O=C(Cc1cn2c(C(=O)NCCc3ccccc3)cccc2n1)NCC1(c2ccc(Cl)cc2)CCCCC1` [Compound 979, 2-[2-({[1-(4-chlorophenyl)cyclohexyl]methyl}amino)-2-oxoethyl]-N-(2-phenylethyl) imidazo[1,2-a]pyridine-5-carboxamide], the IC50 is below 2000 nM.

On to `O=C(O)Cc1cn2c(C(=O)NCC3(c4ccc(Cl)cc4)CCCCC3)cccc2n1` [Compound 949, [5-({[1-(4-chlorophenyl)cyclohexyl]methyl}carbamoyl)imidazo[1,2-a]pyridin-2-yl]acetic acid], for which the IC50 was below 2000 nM.

Still in this experiment, the particulars now being: SH-SY5Y cells; 50% decrease in fluorescence response to 80 μM BzATP; read-out: IC50.
On to `NC1CCN(CCc2cn3c(C(=O)NCC45CC6CC(CC(C6)C4)C5)cccc3n2)CC1` [Compound 117, 2-[2-(4-amino-piperidin-1-yl)-ethyl]-imidazo[1,2-a]pyridine-5-carboxylic acid (adamantan-1-ylmethyl)-amide], for which the 50% inhibitory concentration (IC50) is below 2000 nM.

Consider `CCOC(=O)Cc1nc2cccc(C(=O)NCC34CC5CC(CC(C5)C3)C4)n2c1Cl` [Compound 61, {5-[(Adamantan-1-ylmethyl)-carbamoyl]-3-chloro-imidazo[1,2-a]pyridin-2-yl}-acetic acid ethyl ester], for which the half-maximal inhibitory concentration (IC50) was below 2000 nM.

`C[C@@H]1CN(C(=O)Cc2cn3c(C(=O)NCC45CC6CC(CC(C6)C4)C5)cccc3n2)CCN1` [Compound 114, N-(adamantan-1-ylmethyl)-2-{2-[(3R)-3-methylpiperazin-1-yl]-2-oxoethyl}imidazo[1,2-a]pyridine-5-carboxamide]: the half-maximal inhibitory concentration (IC50) was below 2000 nM.

As to `Nc1nnn(Cc2cn3c(C(=O)NCC45CC6CC(CC(C6)C4)C5)cccc3n2)n1` [Compound 206, N-(adamantan-1-ylmethyl)-2-[(5-amino-2H-tetrazol-2-yl)methyl]imidazo[1,2-a]pyridine-5-carboxamide], the 50% inhibitory concentration (IC50) is below 2000 nM.

`CC1(O)CCN(C(=O)c2cn3c(C(=O)NCC45CC6CC(CC(C6)C4)C5)cccc3n2)C1` (stereo not drawn) [Compound 112, N-(adamantan-1-ylmethyl)-2-[(3-hydroxy-3-methylpyrrolidin-1-yl)carbonyl]imidazo[1,2-a]pyridine-5-carboxamide]: the IC50 is below 2000 nM.

With `N[C@@H]1CCN(Cc2cn3c(C(=O)NCC45CC6CC(CC(C6)C4)C5)cccc3n2)C1` [Compound 69, N-(adamantan-1-ylmethyl)-2-{[(3R)-3-aminopyrrolidin-1-yl]methyl}imidazo[1,2-a]pyridine-5-carboxamide], the IC50 is below 2000 nM.

Still in this experiment, the particulars now being: fluorescence response of cells exposed to 80 μM 2′(3′)-O-(4-benzoyl-benzoyl)adenosine 5′-triphosphate; Example 4A; read-out: IC50.
`CCCCN(C)C(=O)c1cn2c(NC(=O)CC34CC5CC(CC(C5)C3)C4)cccc2n1` [Compound 360, 5-[(adamantan-1-ylacetyl)amino]-N-butyl-N-methylimidazo[1,2-a]pyridine-2-carboxamide]: the concentration for half-maximal inhibition (IC50) was below 2000 nM.

For `CCCN(C)C(=O)c1cn2c(C(=O)NCC(CC(C)C)c3ccccc3)cccc2n1` (stereo not drawn) [Compound 262, 2-N-methyl-5-N-(4-methyl-2-phenylpentyl)-2-N-propylimidazo[1,2-a]pyridine-2,5-dicarboxamide], the IC50 is below 2000 nM.

As to `CC(=O)CCc1cn2c(C(=O)NCC34CC5CC(CC(C5)C3)C4)cccc2n1` [Compound 353, N-(adamantan-1-ylmethyl)-2-(3-oxobutyl)imidazo[l ,2-a]pyridine-5-carboxamide], the IC50 was below 2000 nM.

For the molecule `CC(C)CC(CNC(=O)c1cccc2nc(CC(=O)N3CCCC(C)(C)C3)cn12)c1ccccc1` (stereo not drawn) [Compound 244, 2-[2-(3,3-dimethylpiperidin-1-yl)-2-oxoethyl]-N-(4-methyl-2-phenylpentyl)imidazo [1,2-a]pyridine-5-carboxamide], the IC50 is below 2000 nM.

Consider `CC(C)CC(CNC(=O)c1cccc2nc(CC(=O)N3CCCC3)cn12)c1ccccc1` (stereo not drawn) [Compound 242, N-(4-methyl-2-phenylpentyl)-2-(2-oxo-2-pyrrolidin-1-ylethyl)imidazo[1,2-a]pyridine-5-carboxamide], for which the IC50 was below 2000 nM.

As for `CC(C)CC(CNC(=O)c1cccc2nc(CC(=O)NCC(C)(C)C)cn12)c1ccccc1` (stereo not drawn) [Compound 225, 2-{2-[(2,2-dimethylpropyl)amino]-2-oxoethyl}-N-(4-methyl-2-phenylpentyl) imidazo [1,2-a]pyridine-5-carboxamide], the IC50 is below 2000 nM.

In the case of `COC1CCN(C(=O)c2cn3c(NC(=O)CC45CC6CC(CC(C6)C4)C5)cccc3n2)CC1` [Compound 385, 2-adamantan-1-yl-N-{2-[(4-methoxypiperidin-1-yl)carbonyl]imidazo[1,2-a]pyridin-5-yl}acetamide], the IC50 is below 2000 nM.
